Experiment [1] deals with Penicillium brevicaule. Kind of experiment: Material protection test (MIC on malt extract agar). Format: cell-based. The following applies: 336 h, two weeks at 28° C., 60 to 70% relative humidity, read-out: Minimal inhibitory concentration (MIC value) Penicillium brevicaule. The method, then:
(§1) active compounds of the invention are added at concentrations of 0.1 mg/l to 5000 mg/l to an agar prepared with malt extract. After the agar has solidified, it is infected with pure cultures of Penicillium brevicaule, Chaetomium globosum and Aspergillus niger. After storage for two weeks at 28° C. and 60 to 70% relative humidity, the minimal inhibitory concentration (MIC value) is determined. The MIC value characterizes the lowest concentration of active compound at which there is no growth of the microbial species used.

In experiment [2] the test system is Aspergillus niger. The experiment is described as above. Format: cell-based. To be noted: 336 h, two weeks at 28° C., 60 to 70% relative humidity, read-out: Minimal inhibitory concentration (MIC value) Aspergillus niger. The method, then:
as §1

Experiment [3] relates to Chaetomium globosum. The experiment is described as above. Format: cell-based. To be noted: 336 h, two weeks at 28° C., 60 to 70% relative humidity, read-out: Minimal inhibitory concentration (MIC value) Chaetomium globosum. On the procedure: as §1
The test system of experiment [4] is Phytophthora infestans. Kind of experiment: whole plant or invertebrate. The format is in vivo. The following applies: for pest or weed control at 50 ppm: Phytophthora infestans, in Solanum lycopersicum, 72 h, read-out: Efficiency in %, based on the untreated control at an active compound concentration of 50 ppm; for Efficiency in %, based on the untreated control at an active compound concentration of 100 ppm: tomato, protective spray, evaluation 3 days after inoculation.

In experiment [5] the test system is Plasmopara viticola. Description: Plasmopara test (grapevines)/protective. Format: in vivo. The following applies: protective spray, evaluation 6 days after inoculation. On the procedure: Plasmopara Test (Grapevines)/Protective
Solvent: 4.7 parts by weight of acetone
Emulsifier: 0.3 parts by weight of alkylaryl polyglycol ether
To obtain an expedient preparation of active compound, 1 part by weight of active compound is mixed with the amounts of solvent and emulsifier cited and the concentrate is diluted with water to the desired concentration.
To test for protective activity, young plants are sprayed with the active compound preparation until dew moist. After the sprayed coating has dried on, the plants are inoculated with an aqueous spore suspension of Plasmopara viticola and then remain for 1 day in a moist chamber at 20 to 22° C. and 100% relative humidity. The plants are then set up for 5 days in a greenhouse at 21° C. and approximately 90% relative humidity. The plants are then moistened and placed in a moist chamber for 1 day.
The evaluation is performed 6 days after the inoculation. In the evaluation, 0% denotes an efficiency corresponding to that of the untreated control, while an efficiency of 100% denotes that no contamination is observed.

Converted amounts (≈) assume the structure as drawn.

For the molecule `Cc1noc(C)c1C(=O)n1nnc2cc3c(cc21)OC(F)(F)C(F)(F)O3`, the MIC was 200 µg/mL (≈ 537 µM) in experiment [1], 400 µg/mL (≈ 1070 µM) in experiment [2] and 100 µg/mL (≈ 269 µM) in experiment [3].

As to `Cc1noc(C)c1S(=O)(=O)n1nnc2ccccc21`, the pest or weed control at 50 ppm in experiment [4] came out at 97%.

For `Cc1oncc1S(=O)(=O)n1nnc2c(Br)cc(C(F)(F)F)cc21`, the pest or weed control at 50 ppm in experiment [4] came out at 98%.

Turning to `Cc1onc(N)c1S(=O)(=O)n1nnc2cc3c(cc21)OC(F)(F)O3`, the pest or weed control at 50 ppm in experiment [4] came to 97%.

Consider `Cc1ccc2c(c1)nnn2S(=O)(=O)c1c(C)noc1C`, for which the pest or weed control at 50 ppm in experiment [4] was 97%.

`Cc1noc(C)c1S(=O)(=O)n1nnc2cc([N+](=O)[O-])ccc21`: the pest or weed control at 50 ppm in experiment [4] was 100%.

Consider `Cc1noc(C)c1S(=O)(=O)n1nnc2cc(Cl)ccc21`, for which the pest or weed control at 50 ppm in experiment [4] worked out at 100%.

Consider `Cc1onc(N)c1S(=O)(=O)n1nnc2cc(Cl)ccc21`, for which the pest or weed control at 50 ppm in experiment [4] worked out at 97%.

With `Cc1oncc1S(=O)(=O)n1nnc2cc3c(cc21)OC(F)(F)C(F)(F)O3` [drawing 93], the MIC in experiment [1] turned out to be 200 µg/mL (≈ 507 µM); in experiment [2], 200 µg/mL (≈ 507 µM); in experiment [3], 100 µg/mL (≈ 254 µM).

On to `Cc1noc(C)c1S(=O)(=O)n1nnc2cc3c(cc21)OC(F)(F)C(F)(F)O3` [drawing 95], for which, in experiment [4], the “Efficiency in %, based on the untreated control at an active compound concentration of 100 ppm” value (shortened to “Efficiency in %, based”) came to 94%.

As to `Cc1noc(C)c1S(=O)(=O)n1nnc2cc3c(cc21)OC(F)(F)O3` [drawing 96], in experiment [4], the “Efficiency in %, based” value amounted to 94%.

For `Cc1noc(C)c1S(=O)(=O)n1nnc2c(Br)cc(C(F)(F)F)cc21` [drawing 97], the “Efficiency in %, based” value in experiment [4] turned out to be 95%.

With `Cc1oncc1S(=O)(=O)n1nnc2cc3c(cc21)OC(F)(F)C(F)(F)O3` [drawing 98], the “Efficiency in %, based” value in experiment [4] came out at 94%.

On to `Cc1oncc1S(=O)(=O)n1nnc2cc3c(cc21)OC(F)(F)O3` [drawing 99], for which the “Efficiency in %, based” value in experiment [4] is recorded as 99%.

For `Cc1noc(C)c1S(=O)(=O)n1nnc2cc3c(cc21)OC(F)(F)C(F)(F)O3` [drawing 100], the pest or weed control at 50 ppm in experiment [4] stood at 95%.

`Cc1noc(C)c1S(=O)(=O)n1nnc2cc3c(cc21)OC(F)(F)O3` [drawing 101]: the pest or weed control at 50 ppm in experiment [4] is 99%.

Turning to `Cc1noc(C)c1S(=O)(=O)n1nnc2c(Br)cc(C(F)(F)F)cc21` [drawing 102], in experiment [4], the pest or weed control at 50 ppm stood at 89%.

`Cc1oncc1S(=O)(=O)n1nnc2cc3c(cc21)OC(F)(F)O3` [drawing 103]: the pest or weed control at 50 ppm in experiment [4] came to 100%.

With `Cc1noc(C)c1S(=O)(=O)n1nnc2cc3c(cc21)OC(F)(F)C(F)(F)O3` [drawing 111], the “Efficiency in %, based” value in experiment [5] is reported as 100%.

As for `Cc1noc(C)c1S(=O)(=O)n1nnc2cc3c(cc21)OC(F)(F)O3` [drawing 112], in experiment [5], the “Efficiency in %, based” value was 100%.

Consider `Cc1oncc1S(=O)(=O)n1nnc2cc3c(cc21)OC(F)(F)C(F)(F)O3` [drawing 113], for which the “Efficiency in %, based” value in experiment [5] was found to be 100%.

`Cc1oncc1S(=O)(=O)n1nnc2cc3c(cc21)OC(F)(F)O3` [drawing 114]: in experiment [5], the “Efficiency in %, based” value came to 100%.

For the origin of these results see patent US6521653B2 (priority 1995, dated 2003).
